Here are results for one molecule from patent publication US20230233488A1, “NOVEL USE OF A MODULATOR OF GLUCOSYLCERAMIDE DEGRADATION FOR VIRAL INFECTIONS” (SPEDDING RESEARCH SOLUTIONS, SAS, priority 2020, published 2023).

Structures are written as SMILES.

Data set [1] deals with dengue virus serotype 2—strain 16681 (DENV2). Put plainly: DENV2 infection of Huh7 cells, infectious virus release in supernatants (plaque assay on BHK cells). Format: cell-based. Here is the method: • 2.1 Material and methods Huh7, human hepatoma cells were used for all primary experiments. For all siRNA experiments, cells were seeded in 24-well plates at a concentration of 2×10^5 cells/well in DMEM and 10% FBS. […] During siRNA and drug treatment the media was removed and replaced with DMEM and 2% FBS and a corresponding concentration of siRNA or ambroxol. During viral infection, all media is removed and set aside, and a viral inoculum is added to the cells. The cells and viral inoculum are incubated for 1 hr at room temperature on a rocker. The virus is then aspirated from cells, cells are washed with 1Xphosphate buffer saline (PBS), the media is re-added to the cells, and cells are incubated at 37° C. and 5% CO2 for 24 h. […] Plaque assay analysis of infectious virus release from supernatants was conducted on baby hamster kidney cells (BHK cells). BHK cells are maintained in MEM with 10% FBS. For plaque assays, BHKs are seeded in 6 well plates at a density of […] cells/well. The following day, dilutions of viral supernatants collected from samples are applied to BHK cells, followed by a 1 hr incubation at room temperature, and then cells are overlaid with MEM containing 5% FBS and 2% agarose. Plaques are counted at 6 days post infection. For qRT-PCR analysis, cells are collected post infection in TRIzol reagent (Invitrogen), and RNA is extracted per manufacturer's protocol. A one-step qRT-PCR kit from Agilent (Brilliant III Ultra Fast SYBR Green qRT-PCR Kit) is used to assess viral genome copies. A standard curve of viral RNA is generated using a viral RNA from a cDNA subclone of DENV2 as described in Gullberg RC, et al. 2018. Copies of viral RNA are normalized to the ribosomal protein lateral stalk protein subunit PO (RPLPO) gene using the delta delta Cq method also described in Gullberg RC et al. 2018 (cited above).
Huh7 cells were treated with siRNA targeting glucosylceramidase beta 1 (GBA1) and infected with dengue virus serotype 2—strain 16681 (DENV2) with a multiplicity of infection or MOI=0.3) according to known techniques (Gullberg RC et al. 2018 cited above). After 24 hours post infection (hpi), supernatants were collected and analyzed via plaque assay on baby hamster kidney cells (BHK cells) for infectious virus release.
Huh7 cells were pre-treated with Ambroxol hydrochloride at 0.391, 0.781, 1.56, 3.125, 6.25, 12.5, 25, 50, 100, and 200 μM for 24 h, followed by DENV2 infection with MOI=0.1; or MOI=5). 24 hours post infection, supernatants were collected and analyzed via plaque assay on BHK cells.
Huh7 cells were treated with siRNAs targeting GBA1 and glucosylceramidase beta 2 (GBA2) enzymes followed by DENV2 infection with MOI=0.1; or MOI=5). 24 hpi, supernatants were collected and analyzed via plaque assay on BHK cells while RNA was extracted from cells and analyzed via qRT-PCR for DENV2 genome replication. Results

Another data set relates to Huh7 cells. As to the kind of experiment: Cytotoxicity in Huh7 cells (AlamarBlue). Conditions: 0.391 to 200 μM. Format: cell-based, human.
Another data set deals with A549-ACE2 cells. Put plainly: Cytotoxicity in A549-ACE2 cells (AlamarBlue). Conditions: 48 h incubation, 10^−8 to 5.10^−5 M. (In general: Alamar Blue is a resazurin reagent that responds to reducing activity.)
A further data set relates to SARS-CoV-2. As to the kind of experiment: Antiviral activity against SARS-CoV-2 in A549-ACE2 cells (supernatant viral load by RT-qPCR). Conditions: for antiviral effect on SARS-CoV-2 replication / viral load: 10^−8 to 5.10^−5 M, 48 h, hydrochloride.

Regarding `Cl.Nc1c(Br)cc(Br)cc1CN[C@H]1CC[C@H](O)CC1` [Ambroxol, trans-4-(2-Amino-3,5-dibromobenzylamino) cyclohexanol hydrochloride], in data set [1] (Dengue versus SARS-CoV-2), the “potency against Dengue virus relative to SARS-CoV-2” value stood at 10 fold. In addition, the IC50 in data set [1] (Dengue virus, DENV2, MOI 0.1, read-out: IC50 against Dengue virus) came out at 0.86 µM; in the data set with SARS-CoV-2 (read-out: 50% effective concentration (IC50), SARS-CoV-2 supernatant viral load, MOI 0.1, 48 h post infection, hydrochloride) it was 22 µM. Also, the “concentration above which no detectable virus was released from cells” value in data set [1] (MOI=0.1, Huh7 cells, 24 h post infection) is “above 6.25 μM”. Moreover, the “DENV2 release from Huh7 cells, low MOI” value in data set [1] (MOI=0.1, all concentrations tested (0.391 to 200 μM), 24 h pre-treatment, 24 h post infection) is on record as “statistically significant reduction of DENV2 release”. Also, in data set [1] (MOI=5, Huh7 cells, 24 h post infection), the “concentration giving a statistically significant reduction of DENV2 release” value is at least 12.5 µM. Also, the “DENV2 release from Huh7 cells, high MOI” value in data set [1] (MOI=5, all concentrations tested (0.391 to 200 μM), 24 h post infection) is recorded as “reduced DENV2 release”. Further, the “cytopathic effect on cells” value with Huh7 cells is “only the highest concentrations (100 μM and 200 μM) having any cytopathic effect”. The “cell viability (cytotoxicity)” value in the data set on A549-ACE2 cells is listed as “no toxic effects on cell viability”. Besides, the “antiviral effect on SARS-CoV-2 replication / viral load” value was “significant concentration-dependent antiviral effect” in the data set with SARS-CoV-2 and “concentration-dependent effect reducing SARS-CoV-2 viral load” in the data set on SARS-CoV-2 (listed as ambroxol). Moreover, in the data set on SARS-CoV-2 (dose-response of FIG. 1C), the “maximal antiviral effect compared with remdesivir” value is “equivalent to that of remdesivir”.
